What was measured:
[1] = target: T1, Sodium/glucose cotransporter 1 (Homo sapiens, UniProt P13866); assay: (§1) These cell lines transport 14C-labelled alpha-methyl-glucopyranoside (14C-AMG, Amersham) into the interior of the cell in sodium-dependent manner.The SGLT-2 assay is carried out as follows: CHO-hSGLT2 cells are cultivated in Ham's F12 Medium (BioWhittaker) with 10% foetal calf serum and 250 ug/mL zeocin (Invitrogen), and HEK293-hSGLT2 cells are cultivated in DMEM medium with 10% foetal calf serum and 250 ug/mL zeocin (Invitrogen). The cells are detached from the culture flasks by washing twice with PBS.; format: cell-based
T1 sequence (P13866 whole entry): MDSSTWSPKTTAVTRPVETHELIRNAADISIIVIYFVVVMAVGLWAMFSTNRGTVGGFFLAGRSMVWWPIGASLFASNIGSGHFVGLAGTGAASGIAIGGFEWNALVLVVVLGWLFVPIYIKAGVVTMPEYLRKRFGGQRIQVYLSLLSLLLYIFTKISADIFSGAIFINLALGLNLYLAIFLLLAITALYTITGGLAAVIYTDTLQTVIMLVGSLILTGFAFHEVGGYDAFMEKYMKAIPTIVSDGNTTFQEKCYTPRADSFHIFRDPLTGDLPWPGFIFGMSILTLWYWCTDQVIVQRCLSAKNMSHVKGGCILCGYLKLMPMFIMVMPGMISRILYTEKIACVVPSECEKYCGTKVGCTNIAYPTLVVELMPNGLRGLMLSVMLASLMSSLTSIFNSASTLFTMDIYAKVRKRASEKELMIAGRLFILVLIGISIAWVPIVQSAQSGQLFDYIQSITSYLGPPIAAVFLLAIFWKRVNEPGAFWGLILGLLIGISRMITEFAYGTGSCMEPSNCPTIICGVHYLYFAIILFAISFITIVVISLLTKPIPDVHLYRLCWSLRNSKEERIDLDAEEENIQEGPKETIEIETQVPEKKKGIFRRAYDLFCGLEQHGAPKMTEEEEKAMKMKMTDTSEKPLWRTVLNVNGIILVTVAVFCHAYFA

[2] = target: T2, Sodium/glucose cotransporter 2 (Homo sapiens, UniProt P31639); assay: as §1; format: cell-based
T2 sequence (P31639 whole entry): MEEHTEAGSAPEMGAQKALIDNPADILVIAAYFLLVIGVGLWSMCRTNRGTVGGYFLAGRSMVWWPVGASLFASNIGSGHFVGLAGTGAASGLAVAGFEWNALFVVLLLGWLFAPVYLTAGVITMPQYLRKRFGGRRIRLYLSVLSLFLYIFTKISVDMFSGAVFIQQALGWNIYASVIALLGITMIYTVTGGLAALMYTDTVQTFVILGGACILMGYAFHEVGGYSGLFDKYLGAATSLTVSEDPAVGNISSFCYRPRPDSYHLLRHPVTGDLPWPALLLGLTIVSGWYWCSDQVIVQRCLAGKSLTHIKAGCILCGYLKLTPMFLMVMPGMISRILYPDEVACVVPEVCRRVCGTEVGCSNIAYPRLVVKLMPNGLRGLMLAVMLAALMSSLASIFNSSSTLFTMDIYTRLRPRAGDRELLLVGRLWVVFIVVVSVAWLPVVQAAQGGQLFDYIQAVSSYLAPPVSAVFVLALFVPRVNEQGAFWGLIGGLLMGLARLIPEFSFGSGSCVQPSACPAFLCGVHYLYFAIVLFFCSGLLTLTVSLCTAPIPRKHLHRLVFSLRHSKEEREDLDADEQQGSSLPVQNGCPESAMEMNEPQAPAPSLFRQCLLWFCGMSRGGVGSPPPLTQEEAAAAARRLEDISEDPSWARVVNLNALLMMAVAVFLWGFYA

| Compound | IC50 [1] | IC50 [2] |
| --- | --- | --- |
| CCc1ccc([C@@H]2O[C@H](COC(=O)OC(C)(C)C)[C@@H](O)[C@H](O)[C@H]2O)cc1Cc1ccc2c(c1)OCCO2 | 188 nM | 89 nM |
| CCc1ccc([C@@H]2O[C@H](COP(=O)(O)O)[C@@H](O)[C@H](O)[C@H]2O)cc1Cc1ccc2c(c1)OCCO2 | 89.3 nM | 2.4 nM |

From ChEMBL document CHEMBL3639144, “Glycoside derivatives and uses thereof” (2013)
